From article PMC10636063, “Progesterone activation of β1-containing BK channels involves two binding sites” (Nature Communications, 2023)
“And” between values parts separate entries of the source, which are not always exact repeats. Equal values may be shown once.

Columns and labels:
[1] = tested on: β1-β4 chimera (loop of β4 with β1 TMs); assay: Thermal unfolding (MST) of β1-β4 chimera; assay type: binding; details: 0.004 μM
Description: (§1) BK channel-forming slo1 cDNA (cbv1 isoform; AY330293) was cloned from rat cerebral artery SM cells, and inserted into pcDNA3.1 vector as described. BK β1 cDNA (KCNMB1 product; NP_011452; FJ154955) were isolated from rat cerebral artery SM cells and cloned as described. β4 cDNA (KCNMB4; NP_055320; AY028605) were generously provided by Dr. Ligia Toro. CHO cells were transiently transfected with cbv1 ± β1-, or β4-carrying pcDNA3.1 using X-tremeGENE HP (Sigma-Aldrich). Mutations to β1/4 cDNAs were conducted by Genscript, with sequences being confirmed to be >99% identical to KCNMB1 product; NP_011452 or β4 KCNMB4; NP_055320; respectively. β1/4 and mutant constructs were flag-tagged (DYKDDDDK-tag) by Genscript services for subsequent immunoprecipitation and use in microscale thermophoresis studies.
(§2) Wt β1, wt β4 and mutant constructs were purified by immunoprecipitation using Dynabeads Protein G Kit (10007D by Invitrogen) and following the manufacturer’s instructions. […] The unfolding profile of a protein is a plot of its fluorescence signal against temperature. […] During the heating process, fluorescence is recorded at 330 and 350 nm. The resulting fluorescence ratio change is then analyzed for onset and inflection points. The temperature of onset and inflection is determined using built-in analysis function in Nanotemper PR.therm-control software. […]

β1Y42V = molecular target: T1, β1Y42V (Rattus norvegicus, UniProt P97678, Y42V); assay: Thermal unfolding (MST) of β1Y42V; assay type: binding
T1 construct: FLAG (DYKDDDDK); made in house; host or cells: CHO cells, transient transfection, anti-flag immunoprecipitation
Description: as §1, §2

cbv1+β1Y32V = molecular target: T2, cbv1+β1Y32V (Rattus norvegicus, UniProt P97678, Y32V); assay: Channel activity (NPo) in POPE/POPS bilayers, cbv1+β1Y32V; assay type: biochemical; details: for normalized NPo, time course Fig 2E: Y32V PROG
T2 construct: made in house; host or cells: CHO cells, transient transfection; sucrose-gradient membrane preparation
Description: as §1
Proteins for electrophysiological recordings in artificial lipid bilayers remained untagged. Cells were transiently transfected as described above, pelleted and re-suspended on ice in 10 ml of buffer solution of the following composition (mM): 30 KCl, 2 MgCl2, 10 HEPES, 5 EGTA; pH 7.2. A membrane preparation was obtained using a sucrose gradient as described. Aliquots were stored at −80 °C. BK channel-mediated ionic current was recorded in planar lipid bilayers consisting of a POPE:POPS 3:1 (w/w) mixture. Lipid mixtures were dried under N2 and re-suspended in 25 mg/ml of n-decane BK currents following incorporation into horizontal bilayers at 300/30 mM cis/trans gradient as detailed elsewhere. Ion currents were obtained during a 10-min gap-free recording at 0 mV in the presence of 0.01, 10 μM PROG, 10 μM PROG-oxime, or vehicle control (dimethyl sulfoxide; DMSO). Currents were obtained in gap-free mode using a Warner BC-525D amplifier, low pass-filtered at 1 kHz and sampled at 5 kHz with Digidata 1550B/pCLAMP 11 (Molecular Devices). For comparison with previous data from us[16],[17],[45]–[47], studies were conducted at 20–22 °C. PROG stock, oxime stock or vehicle control (DMSO) was added to the bilayer cis chamber to reach final concentrations (0.01–10 µM), with all compounds being dissolved with the same concentration of DMSO (0.1%); n = 5–10 for each group.
Patch-clamp and bilayer data were analyzed using Clampfit 10.7 software (Molecular Devices). NPo was used as an index of channel steady-state activity where N = number of channels in the patch (defined as a maximal number of opening levels at Po≤1) and Po=single channel open probability. Drug-induced NPo changes were determined by comparing baseline NPo (i.e., NPo with the patch/cell perfused with bath solution) to the NPo from the same patch/cell exposed to the agent under study (DMSO/PROG/oxime) dissolved in bath solution. NPo and mean open time values were automatically calculated using Clampfit 10.7, the latter using a 50% threshold detection event.

MCA branches (C57BL/6J) = assay: EtOH-induced cerebrovascular constriction in vivo (cranial window); parameters: species or system mouse; details: 10 µM PROG + 50 mM EtOH infused
Protocol: Eight-12 week-old male and female C57BL/6J mice were anesthetized with a mixture of xylazine/ketamine (12/100 mg per kg) and kept anesthetized for the duration of the experiment with subsequent ketamine doses (50 mg/kg of weight) as needed. A catheter was inserted into the carotid artery so that the infusion went straight to the brain rather than towards the thoracic cavity. An area of the skull was cleared of tissue and thinned to expose the branching arteries originating from the MCA on the side the catheter was inserted, above the zygomatic arch, between the ear and eye of the skull[19],[34]. The exposed arteries branching out from the MCA were monitored using a Leica MC170 HD microscope with a mounted camera (Leica M125 C) connected to a computer monitor. Drugs were diluted to their final concentration in sodium saline (0.9% NaCl) and administered via catheter at 0.1 ml/25 g of weight. Cranial window images before and after drug administration were acquired every 60 seconds for subsequent analysis.

[2] = tested on: BK channel, construct not given; assay: Channel activity (NPo) time course, Fig 4E block headed only '10 uM PROG'; assay type: biochemical
[3] = time 1 min (normalisation reference)

T2 sequence (P97678 whole entry Y32V): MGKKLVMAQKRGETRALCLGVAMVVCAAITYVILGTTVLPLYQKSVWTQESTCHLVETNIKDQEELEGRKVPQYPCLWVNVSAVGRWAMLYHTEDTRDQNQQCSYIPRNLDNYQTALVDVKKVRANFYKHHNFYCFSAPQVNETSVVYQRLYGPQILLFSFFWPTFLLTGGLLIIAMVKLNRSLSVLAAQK
T2 sequence (Q62976 1-1148 isoform Q62976-2 partner): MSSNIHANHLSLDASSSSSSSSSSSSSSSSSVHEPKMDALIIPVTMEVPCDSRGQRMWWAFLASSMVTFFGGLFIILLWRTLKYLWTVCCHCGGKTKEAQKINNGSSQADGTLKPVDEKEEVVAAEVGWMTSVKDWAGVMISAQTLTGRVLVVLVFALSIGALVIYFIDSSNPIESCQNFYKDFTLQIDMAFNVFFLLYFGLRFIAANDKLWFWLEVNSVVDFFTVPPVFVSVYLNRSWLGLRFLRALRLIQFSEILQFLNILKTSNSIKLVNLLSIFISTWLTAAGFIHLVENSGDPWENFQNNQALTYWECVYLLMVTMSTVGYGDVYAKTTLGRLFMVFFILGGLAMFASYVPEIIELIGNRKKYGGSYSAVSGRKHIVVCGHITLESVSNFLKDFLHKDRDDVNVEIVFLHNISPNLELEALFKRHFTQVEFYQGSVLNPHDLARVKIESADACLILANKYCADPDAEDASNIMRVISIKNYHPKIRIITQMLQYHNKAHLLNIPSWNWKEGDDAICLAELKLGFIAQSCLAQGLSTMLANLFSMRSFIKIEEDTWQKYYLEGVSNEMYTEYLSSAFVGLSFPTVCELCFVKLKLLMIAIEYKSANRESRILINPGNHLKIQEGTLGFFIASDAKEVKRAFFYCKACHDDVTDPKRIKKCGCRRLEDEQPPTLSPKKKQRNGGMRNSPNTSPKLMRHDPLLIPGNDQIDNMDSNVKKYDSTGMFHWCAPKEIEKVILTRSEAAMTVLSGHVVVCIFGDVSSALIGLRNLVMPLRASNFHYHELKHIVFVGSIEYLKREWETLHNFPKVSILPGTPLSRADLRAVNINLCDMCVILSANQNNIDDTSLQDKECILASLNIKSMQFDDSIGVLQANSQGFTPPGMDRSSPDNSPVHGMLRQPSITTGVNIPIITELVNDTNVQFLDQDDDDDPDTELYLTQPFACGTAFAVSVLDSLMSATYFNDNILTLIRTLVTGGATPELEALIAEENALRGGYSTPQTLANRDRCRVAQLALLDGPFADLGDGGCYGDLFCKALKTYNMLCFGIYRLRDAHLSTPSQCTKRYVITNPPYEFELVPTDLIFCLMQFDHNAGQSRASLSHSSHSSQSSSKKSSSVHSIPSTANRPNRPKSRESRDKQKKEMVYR
T1 sequence (P97678 whole entry Y42V): as the sequence (P97678 whole entry Y32V) above, with V32Y, Y42V counted along it

Structure (SMILES): CC(=O)[C@H]1CC[C@H]2[C@@H]3CCC4=CC(=O)CC[C@]4(C)[C@H]3CC[C@]12C [PROG, Progesterone]
- effect on thermal unfolding / binding [1]: still bound and destabilized the protein structure
- binding (β1Y42V): still bind PROG
- action on channel activity (NPo) (cbv1+β1Y32V; 10 µM, vs DMSO): effectively abolished PROG action
- normalized NPo, time course Fig 2E (cbv1+β1Y32V; [3]): 1
- normalized NPo, time course Fig 2E (cbv1+β1Y32V; time 3 min): 1.125 and 0.8919 and 0.9083 and 0.945 and 0.929
- normalized NPo, time course Fig 2E (cbv1+β1Y32V; time 5 min): 0.9853 and 0.9339 and 0.8202 and 0.8981 and 0.6799
- normalized NPo, time course Fig 2E (cbv1+β1Y32V; time 6 min): 1.106 and 1.228 and 1.117 and 1.276 and 0.8487
- normalized NPo, time course Fig 2E (cbv1+β1Y32V; time 7 min): 1.144 and 0.9028 and 1.206 and 0.9453
- normalized NPo, time course Fig 2E (cbv1+β1Y32V; time 8 min): 0.6757 and 1.202 and 0.918 and 1.1397
- normalized NPo, time course Fig 2E (cbv1+β1Y32V; time 9 min): 0.5676 and 0.9266 and 0.822 and 1.088
- normalized NPo, time course Fig 2E (cbv1+β1Y32V; time 10 min): 0.7195 and 0.8661 and 0.9555 and 1.102
- effect on EtOH-induced cerebrovascular constriction (MCA branches (C57BL/6J)): still protected against EtOH-induced cerebrovascular constriction
- normalized NPo, time course Fig 4E [2, 3]: 1
- normalized NPo, time course Fig 4E ([2]; time 2 min): 0.9853 and 1 and 0.9322 and 1.014 and 0.7178
- normalized NPo, time course Fig 4E ([2]; time 4 min): 1.015 and 1.069 and 1.029 and 1.047 and 1.067
- normalized NPo, time course Fig 4E ([2]; time 5 min): 1.11 and 1.053 and 1.066 and 1.023 and 1.182
- normalized NPo, time course Fig 4E ([2]; time 6 min): 1.088 and 1.041 and 1.129 and 1.028 and 1.207
- normalized NPo, time course Fig 4E ([2]; time 7 min): 1.162 and 1.118 and 1.064 and 0.8935 and 1.1318
- normalized NPo, time course Fig 4E ([2]; time 8 min): 1.096 and 1.061 and 1.045 and 1.148 and 1.63
- normalized NPo, time course Fig 4E ([2]; time 10 min): 1.11 and 0.7114 and 1.049 and 1.394 and 1.416
